Data as given in patent US20230365577A1, “Photodynamic Therapy and Diagnosis” (RMW CHO Group Limited, priority 2020, published 2023).
Counter-ions that a name gives are not always drawn. Like-named read-outs stand apart in the source and are kept apart here.

Columns and labels:
[1] = tested on: 4T1 murine breast cancer cells; assay: Tumour localisation and retention, model 1 (subcutaneous 4T1 tumours); assay type: in vivo, Balb/C wild type mice; conditions: 0.1 mg/kg IT, primary breast tumours, IVIS fluorescence
Method: Model 1 used Balb/C wild type mice implanted subcutaneously with 10^4×4T1 murine breast cancer cells. When tumours reached a palpable size (˜3-6 mm diameter) mice received compound 6 by either oral gavage (ORAL: 2.5 mg/kg), intravenous injection (IV: 1.0 mg/kg), or intratumoral injection (IT: 1.0 mg/kg in […]). To establish compound 6 localisation, mice were imaged using an IVIS Lumina III In Vivo Imaging System (Perkin Elmer) to detect fluorescence at 660 nm when illuminated under blue (400-460 nm) light.
In a second experiment, the localisation of compound 6 at 24 hours post-administration was compared to that of Talaporfin sodium and 5-Aminolevulinic acid (5-ALA), with all compounds injected at 0.1 mg/kg IT. Fluorescence measurements were made using an IVIS Lumina III instrument (as above).

[2] = tested on: SKOV3 ovarian cancer cells; assay: Phototoxicity in SKOV3 cells (652 nm laser, AlamarBlue viability); assay type: cell-based, Human; conditions: Homo sapiens, SK-OV-3, light or radiation study, 24 h uptake, 652 nm laser 50 mW/cm2 5 mins (15 J/cm2), viability 24 h later
Method: (§1) Human ovarian cancer cell line SKOV3 (ATCC #HTB-77) was maintained in Dulbecco's Modified Eagle Medium/Nutrient Mixture F-12 (DMEM/F-12), supplemented with 10% v/v Fetal Bovine Serum, 100 U/mL penicillin and 100 µg/mL streptomycin. Monolayer cultures were grown in a humidified incubator at 37° C. with 5% CO2.
(§2) For in vitro experiments, photosensitizers (stock solution 5.5 mM in 100% DMSO) were diluted in cell culture media (Dulbecco's Modified Eagle Medium/Nutrient Mixture F-12) supplemented with 10% v/v Fetal Bovine Serum, 100 U/mL penicillin, 100 µg/mL streptomycin and 10% w/v Kollidon-12. Once cells had reached ˜80% confluence, spent media was replaced with media containing photosensitizer and cells were incubated for the desired period of time to allow photosensitizer uptake.
SKOV3 cells were seeded in 96-well black wall plates (Greiner #655090) at a cell density of 5000 cells in 100 μl culture medium per well. On reaching ˜60% confluence, so media was aspirated and replaced with fresh media containing the relevant phyllochlorin analogue from 0-100 μM in DMSO. Cells were incubated for a further 24 hours, allowing uptake of phyllochlorin analogues.
To test for phototoxicity, cells incubated with phyllochlorin analogues (0-10 μM in DMSO) had culture media replaced after 24 hours (as above) and were then exposed to a 652 nm laser (Invion) with laser density at 50 mW/cm^2 for 5 mins (total 15 J/cm^2). Following activation, cells were cultured for a further 24 hours. Media was then replaced with fresh media containing AlamarBlue, and % viable cells remaining assessed as above. Controls included cells treated with phyllochlorin analogues but not activated by laser light; cells without phyllochlorin analogue treatment but with laser light; and untreated controls. All measurements were made in quadruplicate.
(§3) For comparative purposes, phyllochlorin analogues were tested and compared against both chlorin e4 disodium and Talaporfin sodium, a clinically approved photosensitizer used in the photodynamic treatment of lung cancers. Phototoxicity IC90 values and dark toxicity IC10 values were calculated using a log[inhibitor]-vs normalized response dose curve with variable slope, using the formula Y=100/(1+(IC90/X)^HillSlope (phototoxicity IC90) or Y=100/(1+(IC10/X)^HillSlope (dark toxicity IC10).

[3] = Singlet oxygen (1O2) production rate; assay type: physicochemical
Text: The production of singlet oxygen (^1O2), cellular phototoxicity and light-independent cytotoxicity (“dark toxicity”) of a number of phyllochlorin analogues were compared against chlorin e4 disodium and Talaporfin sodium (mono-L-aspartyl chlorin e6), the active ingredient of Laserphyrin™.

[4] = tested on: SKOV3 ovarian cancer cells; assay: Inherent cytotoxicity (dark toxicity) in SKOV3 cells (AlamarBlue viability); assay type: cell-based, Human; conditions: human, 24 h
Method: as §1, §2
SKOV3 cells were seeded in 96-well black wall plates (Greiner #655090) at a cell density of 5000 cells in 100 μl culture medium per well. On reaching ˜60% confluence, media was aspirated and replaced with fresh media containing the relevant phyllochlorin analogue from 0-100 μM in DMSO. Cells were incubated for a further 24 hours, allowing uptake of phyllochlorin analogues.
To test for inherent cytotoxicity (i.e. “dark toxicity”) of the phyllochlorin analogue the culture media was replaced after 24 hours with fresh media containing 10% (v/v) AlamarBlue Cell Viability Reagent (ThermoFisher) and cells incubated at 37° C. for 6 hours. Untreated cells were used as a control. Fluorescence (Ex 555 nm/Em 596 nm) was measured using a Cytation 3 Multimode Plate Reader (Biotek), and cytotoxicity assessed according to the % viable cells remaining. All measurements were made in quadruplicate.
as §3

[5] = read-out: Cellular Toxicity: Phototoxicity IC90, SKOV3
[6] = SKOV3, read-out: Cellular Toxicity: Phototoxicity IC90

| Structure (SMILES) | Tumour localisation at 24 hours post-administration [1] | IC90 [2, 5] | Singlet Oxygen Production (slope) 1O2 [3] | Cellular Toxicity: Dark toxicity IC10 [4] | IC90 [2, 6] |
| --- | --- | --- | --- | --- | --- |
| NCC(=O)CCC(=O)O [Compound 5-ALA, 5-Aminolevulinic acid, reference compound] | could not be accurately detected | – | – | – | – |
| C=Cc1c(C)c2cc3nc(c(C)c4cc(C)c(cc5nc(cc1[nH]2)C(C)=C5CC)[nH]4)[C@@H](CCC(=O)N(C)CCCS[C@@H]1O[C@H](COC(=O)[C@@H](N)C(C)C)[C@@H](O)[C@H](O)[C@H]1O)[C@@H]3C [Compound 12, ((2R,3S,4S,5R,6S)-6-((3-(3-((7S,8S)-18-ethyl-2,5,8,12,17-pentamethyl-13-vinyl-7H,8H-porphyrin-7-yl)-N-methylpropanamido)propyl)thio)-3,4,5-trihydroxytetrahydro-2H-pyran-2-yl)methyl L-valinate hydrochloride] | – | 0.18 µM | 1121.0 | 28.36 µM | – |
| C=Cc1c(C)c2cc3nc(c(C)c4cc(C)c(cc5nc(cc1[nH]2)C(C)=C5CC)[nH]4)[C@@H](CCC(=O)N[C@H]1C(O)O[C@H](CO)[C@@H](O)[C@@H]1O)[C@@H]3C (stereo partly shown) [Compound 13, phyllochlorin 2-deoxyglucosamine-propylamide] | – | 0.12 µM | 1423.0 | 13.02 µM | – |
| C=Cc1c(C)c2cc3nc(c(C)c4cc(C)c(cc5nc(cc1[nH]2)C(C)=C5CC)[nH]4)[C@@H](CCC(=O)N(C)CCOCCO[C@@H]1O[C@H](CO)[C@@H](O)[C@H](O)[C@H]1O)[C@@H]3C [Compound 14, 3-((7S,8S)-18-ethyl-2,5,8,12,17-pentamethyl-13-vinyl-7H,8H-porphyrin-7-yl)-N-methyl-N-(2-(2-(((2R,3R,4S,5S,6R)-3,4,5-trihydroxy-6-(hydroxymethyl)tetrahydro-2H-pyran-2-yl)oxy)ethoxy)ethyl)propanamide] | – | – | 1293.0 | 22.79 µM | 0.17 µM |
| C=Cc1c(C)c2cc3nc(c(C)c4cc(C)c(cc5nc(cc1[nH]2)C(C)=C5CC)[nH]4)[C@@H](CCC(=O)N(C)CCCO[C@@H]1O[C@H](CO)[C@@H](O)[C@H](O)[C@H]1O)[C@@H]3C [Compound 15, 3-((7S,8S)-18-ethyl-2,5,8,12,17-pentamethyl-13-vinyl-7H,8H-porphyrin-7-yl)-N-methyl-N-(3-(((2R,3R,4S,5S,6R)-3,4,5-trihydroxy-6-(hydroxymethyl)tetrahydro-2H-pyran-2-yl)oxy)propyl)propanamide] | – | – | 976.4 | 14.60 µM | 0.23 µM |
| C=Cc1c(C)c2cc3nc(c(C)c4cc(C)c(cc5nc(cc1[nH]2)C(C)=C5CC)[nH]4)[C@@H](CCC(=O)N(C)CCCS[C@H]1O[C@H](CO)[C@@H](O)[C@H](O)[C@@H]1O)[C@@H]3C [Compound 16, phyllochlorin α-D-1-thiomannose-N-methylpropylamide conjugate] | – | – | 884.1 | 28.64 µM | 0.25 µM |
| C=Cc1c(C)c2cc3nc(c(C)c4cc(C)c(cc5nc(cc1[nH]2)C(C)=C5CC)[nH]4)[C@@H](CCC(=O)N(C)CCCS[C@@H]1O[C@H](CO)[C@@H](O)[C@H](O)[C@@H]1O)[C@@H]3C [Compound 17, phyllochlorin β-D-1-thiomannose-N-methylpropylamide conjugate] | – | – | 1265.0 | 76.27 µM | 0.22 µM |
| C=Cc1c(C)c2cc3nc(c(C)c4cc(C)c(cc5nc(cc1[nH]2)C(C)=C5CC)[nH]4)[C@@H](CCC(=O)N(C)CCOCCO)[C@@H]3C [Compound 18, 3-((7S,8S)-18-ethyl-2,5,8,12,17-pentamethyl-13-vinyl-7H,8H-porphyrin-7-yl)-N-(2-(2-hydroxyethoxy)ethyl)-N-methylpropanamide] | – | – | 1060.0 | 32.30 µM | 0.1 µM |
| C=Cc1c(C)c2cc3nc(c(C)c4cc(C)c(cc5nc(cc1[nH]2)C(C)=C5CC)[nH]4)[C@@H](CCC(=O)NCCOCCO[C@@H]1O[C@H](CO)[C@@H](O)[C@H](O)[C@H]1O)[C@@H]3C [Compound 20, 3-((7S,8S)-18-ethyl-2,5,8,12,17-pentamethyl-13-vinyl-7H,8H-porphyrin-7-yl)-N-(2-(2-(((2R,3R,4S,5S,6R)-3,4,5-trihydroxy-6-(hydroxymethyl)tetrahydro-2H-pyran-2-yl)oxy)ethoxy)ethyl)propanamide] | – | – | 1210.0 | 46.23 µM | 0.23 µM |
| C=Cc1c(C)c2cc3nc(c(CC(=O)N[C@@H](CC(=O)O)C(=O)O)c4[nH]c(cc5nc(cc1[nH]2)C(C)=C5CC)c(C)c4C(=O)O)[C@@H](CCC(=O)O)[C@@H]3C [Talaporfin sodium, mono-L-aspartyl chlorin e6, reference compound] | – | – | 736.7 | 11.10 µM | 22.8 µM |
